According to PubChem BioAssay (NCI):
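Dose response: 5 concentrations. Exposure: 48 h. Format: 96-well plates. Endpoint: linear interpolation; highest concentration if not reached. At the GI50, growth is halved. TGI: total growth inhibition.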

What was measured:
Experiment in all cases: DTP human tumour cell line panel, 48 h
MCF7 breast = tested on: MCF7 breast
M14 melanoma = tested on: M14 melanoma
OVCAR-5 ovarian = tested on: OVCAR-5 ovarian
UO-31 renal = tested on: UO-31 renal
K-562 leukemia = tested on: K-562 leukemia
MALME-3M melanoma = tested on: MALME-3M melanoma
NCI/ADR-RES ovarian = tested on: NCI/ADR-RES ovarian
NCI-H460 lung = tested on: NCI-H460 lung
ACHN renal = tested on: ACHN renal
MDA-MB-231 breast = tested on: MDA-MB-231 breast
OVCAR-8 ovarian = tested on: OVCAR-8 ovarian
PC-3 prostate = tested on: PC-3 prostate
CAKI-1 renal = tested on: CAKI-1 renal
NCI-H226 lung = tested on: NCI-H226 lung
HCC-2998 colon = tested on: HCC-2998 colon
TK-10 renal = tested on: TK-10 renal
T-47D breast = tested on: T-47D breast
OVCAR-3 ovarian = tested on: OVCAR-3 ovarian
SK-MEL-5 melanoma = tested on: SK-MEL-5 melanoma
HOP-62 NSCLC = tested on: HOP-62 NSCLC
HT29 colon = tested on: HT29 colon
OVCAR-4 ovarian = tested on: OVCAR-4 ovarian
786-0 renal = tested on: 786-0 renal
EKVX NSCLC = tested on: EKVX NSCLC
SW-620 colon = tested on: SW-620 colon
UACC-257 melanoma = tested on: UACC-257 melanoma
RXF 393 renal = tested on: RXF 393 renal
NCI-H522 lung = tested on: NCI-H522 lung
DU-145 prostate = tested on: DU-145 prostate

Compound `O=C(CN1CCOCC1)NNc1ncnc2ccccc12` has a GI50 (MCF7 breast) of 4.33 µM, a TGI (MCF7 breast) of 21.9 µM and a GI50 (M14 melanoma) of 10.1 µM. For the same compound, the TGI (M14 melanoma) was 25.2 µM, the GI50 (OVCAR-5 ovarian) was 12.9 µM and the TGI (OVCAR-5 ovarian) was 25.9 µM. For the same compound, the GI50 (UO-31 renal) was 13.3 µM, the TGI (UO-31 renal) was 26.1 µM and the GI50 (K-562 leukemia) was 3.18 µM. For the same compound, the TGI (K-562 leukemia) was 12.9 µM, the GI50 (MALME-3M melanoma) was 1.74 µM and the TGI (MALME-3M melanoma) was 3.52 µM. For the same compound, the GI50 (NCI/ADR-RES ovarian) was 20.6 µM, the TGI (NCI/ADR-RES ovarian) was 50.2 µM and the GI50 (NCI-H460 lung) was 19.1 µM. It also gave a TGI (NCI-H460 lung) of 38.9 µM, a GI50 (ACHN renal) of 1.82 µM and a TGI (ACHN renal) of 3.21 µM. The GI50 (MDA-MB-231 breast) was 14.4 µM, the TGI (MDA-MB-231 breast) was 29.6 µM and the GI50 (OVCAR-8 ovarian) was 17.1 µM. For the same compound, the TGI (OVCAR-8 ovarian) was 33.1 µM, the GI50 (PC-3 prostate) was 14.7 µM and the TGI (PC-3 prostate) was 30.4 µM. It also gave a GI50 (CAKI-1 renal) of 2.76 µM, a GI50 (NCI-H226 lung) of 15.8 µM and a TGI (NCI-H226 lung) of 39.7 µM. The GI50 (HCC-2998 colon) was 16.9 µM, the TGI (HCC-2998 colon) was 31.4 µM and the GI50 (TK-10 renal) was 21.5 µM. It also gave a TGI (TK-10 renal) of 36.3 µM, a GI50 (T-47D breast) of 4.1 µM and a TGI (T-47D breast) of 19.7 µM. For the same compound, the GI50 (OVCAR-3 ovarian) was 3.78 µM, the TGI (OVCAR-3 ovarian) was 14.1 µM and the GI50 (SK-MEL-5 melanoma) was 18 µM. For the same compound, the TGI (SK-MEL-5 melanoma) was 33.3 µM, the GI50 (HOP-62 NSCLC) was 17.9 µM and the TGI (HOP-62 NSCLC) was 32.9 µM. It also gave a GI50 (HT29 colon) of 15.6 µM, a TGI (HT29 colon) of 33.7 µM and a GI50 (OVCAR-4 ovarian) of 1.83 µM. For the same compound, the TGI (OVCAR-4 ovarian) was 3.85 µM, the GI50 (786-0 renal) was 2.23 µM and the TGI (786-0 renal) was 5.17 µM. The GI50 (EKVX NSCLC) was 14.2 µM, the TGI (EKVX NSCLC) was 28 µM and the GI50 (SW-620 colon) was 2.48 µM. It also gave a TGI (SW-620 colon) of 6.47 µM, a GI50 (UACC-257 melanoma) of 14.1 µM and a TGI (UACC-257 melanoma) of 28 µM. It also gave a GI50 (RXF 393 renal) of 2.29 µM, a TGI (RXF 393 renal) of 6.12 µM and a GI50 (NCI-H522 lung) of 1.41 µM. The TGI (NCI-H522 lung) was 2.92 µM and the GI50 (DU-145 prostate) was 17.4 µM.
